Results on 11 compounds are retold here after patent publication US20230372498A1, “PLK1 SELECTIVE DEGRADATION INDUCING COMPOUND” (UPPTHERA, priority 2020, published 2023).

The assay has as its target T1, PLK1 (Homo sapiens, UniProt P53350).
T1 construct: endogenous in cells; host or cells: HeLa
Kind of assay: PLK1 protein degradation in HeLa cells, Western blotting (PLK1/GAPDH ratio). The class given is cell-based. The conditions noted are these: 6 hours compound incubation; for Dmax: thymidine block and release, 10 points three-fold from 3 μM, PLK1 to GAPDH ratio, read-out: Dmax; for DC50: measured only if the grade of Dmax is A or B. The procedure, abridged:
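PLK1 level measured by Western blot as PLK1/GAPDH in HeLa lysates (15 μg protein per lane). Cells were blocked with 2 mM thymidine 24 h, released 4 h, and exposed 6 h to compound, 10 concentrations, 3-fold steps, top 3 μM.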

T1 sequence (P53350 whole entry): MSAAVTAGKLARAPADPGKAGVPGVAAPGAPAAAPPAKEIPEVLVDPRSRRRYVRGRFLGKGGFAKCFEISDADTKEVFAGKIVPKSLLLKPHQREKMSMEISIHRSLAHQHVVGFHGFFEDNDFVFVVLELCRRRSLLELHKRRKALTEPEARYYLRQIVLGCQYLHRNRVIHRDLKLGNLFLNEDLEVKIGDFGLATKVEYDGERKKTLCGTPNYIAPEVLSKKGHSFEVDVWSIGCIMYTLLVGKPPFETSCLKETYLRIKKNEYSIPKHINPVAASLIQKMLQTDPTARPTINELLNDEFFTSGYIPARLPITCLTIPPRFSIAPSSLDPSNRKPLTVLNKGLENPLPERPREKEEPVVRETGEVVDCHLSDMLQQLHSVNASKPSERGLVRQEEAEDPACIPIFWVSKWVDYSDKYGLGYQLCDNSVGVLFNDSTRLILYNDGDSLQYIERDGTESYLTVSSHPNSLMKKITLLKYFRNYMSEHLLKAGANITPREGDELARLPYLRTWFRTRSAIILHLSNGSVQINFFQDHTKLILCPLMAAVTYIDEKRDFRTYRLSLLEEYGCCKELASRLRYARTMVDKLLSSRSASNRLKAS

By Dmax is commonly meant the greatest extent of degradation seen. Regarding `COc1cc(C(=O)NC2CCN(Cc3cn(CCCC(=O)Nc4cccc5c4C(=O)N(C4CCC(=O)NC4=O)C5=O)nn3)CC2)c(F)cc1Nc1ncc2c(n1)N(C1CCCC1)CC(F)(F)C(=O)N2C` (centres unmarked) [Compound 46, 4-((9-cyclopentyl-7,7-difluoro-5-methyl-6-oxo-6,7,8,9-tetrahydro-5H-pyrimido[4,5-b][1,4]diazepin-2-yl)amino)-N-(1-((1-(4-((2-(2,6-dioxopiperidin-3-yl)-1,3-dioxoisoindolin-4-yl)amino)-4-oxobutyl)-1H-1,2,3-triazol-4-yl)methyl)piperidin-4-yl)-2-fluoro-5-methoxybenzamide], the Dmax was less than 60%.

As to `COc1cc(C(=O)NC2CCN(Cc3cn(CCNC(=O)CNc4cccc5c4C(=O)N(C4CCC(=O)NC4=O)C5=O)nn3)CC2)c(F)cc1Nc1ncc2c(n1)N(C1CCCC1)CC(F)(F)C(=O)N2C` (centres unmarked) [Compound 47, 4-((9-cyclopentyl-7,7-difluoro-5-methyl-6-oxo-6,7,8,9-tetrahydro-5H-pyrimido[4,5-b][1,4]diazepin-2-yl)amino)-N-(1-((1-(2-(2-((2-(2,6-dioxopiperidin-3-yl)-1,3-dioxoisoindolin-4-yl)amino)acetamido)ethyl)-1H-1,2,3-triazol-4-yl)methyl)piperidin-4-yl)-2-fluoro-5-methoxybenzamide], the Dmax is less than 60%. One may read the DC50 as the concentration giving 50% degradation. Turning to `COc1cc(C(=O)NC2CCN(C[C@@H]3C[C@@H]3CNc3cccc4c3C(=O)N(C3CCC(=O)NC3=O)C4=O)CC2)c(F)cc1Nc1ncc2c(n1)N(C1CCCC1)CC(F)(F)C(=O)N2C` (stereo partly drawn) [Compound 48, 4-((9-cyclopentyl-7,7-difluoro-5-methyl-6-oxo-6,7,8,9-tetrahydro-5H-pyrimido[4,5-b][1,4]diazepin-2-yl)amino)-N-(1-(((1R,2S)-2-(((2-(2,6-dioxopiperidin-3-yl)-1,3-dioxoisoindolin-4-yl)amino)methyl)cyclopropyl)methyl)piperidin-4-yl)-2-fluoro-5-methoxybenzamide], the DC50 was no more than 0.5 µM and the Dmax is 60 to 80%. For `COc1cc(C(=O)NC2CCN(CCOCCN(C)CCNc3cccc4c3C(=O)N(C3CCC(=O)NC3=O)C4=O)CC2)c(F)cc1Nc1ncc2c(n1)N(C1CCCC1)CC(F)(F)C(=O)N2C` (centres unmarked) [Compound 49, 4-((9-cyclopentyl-7,7-difluoro-5-methyl-6-oxo-6,7,8,9-tetrahydro-5H-pyrimido[4,5-b][1,4]diazepin-2-yl)amino)-N-(1-(2-(2-((2-((2-(2,6-dioxopiperidin-3-yl)-1,3-dioxoisoindolin-4-yl)amino)ethyl)(methyl)amino)ethoxy)ethyl)piperidin-4-yl)-2-fluoro-5-methoxybenzamide] the same measures were no more than 0.5 µM and 60 to 80%.

For the compound `COc1cc(C(=O)NC2CCN(CCOCCOCCNc3ccc4c(c3)C(=O)N(C3CCC(=O)NC3=O)C4=O)CC2)c(F)cc1Nc1ncc2c(n1)N(C1CCCC1)CC(F)(F)C(=O)N2C` (centres unmarked) [Compound 50, 4-((9-cyclopentyl-7,7-difluoro-5-methyl-6-oxo-6,7,8,9-tetrahydro-5H-pyrimido[4,5-b][1,4]diazepin-2-yl)amino)-N-(1-(2-(2-(2-((2-(2,6-dioxopiperidin-3-yl)-1,3-dioxoisoindolin-5-yl)amino)ethoxy)ethoxy)ethyl)piperidin-4-yl)-2-fluoro-5-methoxybenzamide], the DC50 was no more than 0.05 µM and the Dmax is no less than 80%. Taken in the same sequence, the figures for `COc1cc(C(=O)NC2CCN(CCOCCOCCOCCOCCNc3ccc4c(c3)C(=O)N(C3CCC(=O)NC3=O)C4=O)CC2)c(F)cc1Nc1ncc2c(n1)N(C1CCCC1)CC(F)(F)C(=O)N2C` (centres unmarked) [Compound 51, 4-((9-cyclopentyl-7,7-difluoro-5-methyl-6-oxo-6,7,8,9-tetrahydro-5H-pyrimido[4,5-b][1,4]diazepin-2-yl)amino)-N-(1-(14-((2-(2,6-dioxopiperidin-3-yl)-1,3-dioxoisoindolin-5-yl)amino)-3,6,9,12-tetraoxatetradecyl)piperidin-4-yl)-2-fluoro-5-methoxybenzamide] were no more than 0.05 µM and no less than 80%. Taken in the same sequence, the figures for `COc1cc(C(=O)NC2CCN(CCOCCOCCOCCOCC#Cc3cccc4c3C(=O)N(C3CCC(=O)NC3=O)C4=O)CC2)c(F)cc1Nc1ncc2c(n1)N(C1CCCC1)CC(F)(F)C(=O)N2C` (centres unmarked) [Compound 52, 4-((9-cyclopentyl-7,7-difluoro-5-methyl-6-oxo-6,7,8,9-tetrahydro-5H-pyrimido[4,5-b][1,4]diazepin-2-yl)amino)-N-(1-(15-(2-(2,6-dioxopiperidin-3-yl)-1,3-dioxoisoindolin-4-yl)-3,6,9,12-tetraoxapentadec-14-yn-1-yl)piperidin-4-yl)-2-fluoro-5-methoxybenzamide] were no more than 0.05 µM and no less than 80%. For `COc1cc(C(=O)NC2CCN(CCOCCOCCOCCOCCCc3cccc4c3C(=O)N(C3CCC(=O)NC3=O)C4=O)CC2)c(F)cc1Nc1ncc2c(n1)N(C1CCCC1)CC(F)(F)C(=O)N2C` (centres unmarked) [Compound 53, 4-((9-cyclopentyl-7,7-difluoro-5-methyl-6-oxo-6,7,8,9-tetrahydro-5H-pyrimido[4,5-b][1,4]diazepin-2-yl)amino)-N-(1-(15-(2-(2,6-dioxopiperidin-3-yl)-1,3-dioxoisoindolin-4-yl)-3,6,9,12-tetraoxapentadecyl)piperidin-4-yl)-2-fluoro-5-methoxybenzamide] the same measures were no more than 0.05 µM and no less than 80%. Consider `COc1cc(C(=O)NC2CCN(CCOCCOCC#Cc3cccc4c3C(=O)N(C3CCC(=O)NC3=O)C4=O)CC2)c(F)cc1Nc1ncc2c(n1)N(C1CCCC1)CC(F)(F)C(=O)N2C` (centres unmarked) [Compound 54, 4-((9-cyclopentyl-7,7-difluoro-5-methyl-6-oxo-6,7,8,9-tetrahydro-5H-pyrimido[4,5-b][1,4]diazepin-2-yl)amino)-N-(1-(2-(2-((3-(2-(2,6-dioxopiperidin-3-yl)-1,3-dioxoisoindolin-4-yl)prop-2-yn-1-yl)oxy)ethoxy)ethyl)piperidin-4-yl)-2-fluoro-5-methoxybenzamide], for which the DC50 was no more than 0.5 µM and the Dmax was 60 to 80%.

As for `COc1cc(C(=O)NC2CCN(CCOCCOCCCc3cccc4c3C(=O)N(C3CCC(=O)NC3=O)C4=O)CC2)c(F)cc1Nc1ncc2c(n1)N(C1CCCC1)CC(F)(F)C(=O)N2C` (centres unmarked) [Compound 55, 4-((9-cyclopentyl-7,7-difluoro-5-methyl-6-oxo-6,7,8,9-tetrahydro-5H-pyrimido[4,5-b][1,4]diazepin-2-yl)amino)-N-(1-(2-(2-(3-(2-(2,6-dioxopiperidin-3-yl)-1,3-dioxoisoindolin-4-yl)propoxy)ethoxy)ethyl)piperidin-4-yl)-2-fluoro-5-methoxybenzamide], the DC50 was no more than 0.5 µM and the Dmax lay in the range of 60 to 80%. Take `COc1cc(C(=O)NC2CCN(CCOCCNC(=O)COc3cccc4c3C(=O)N(C3CCC(=O)NC3=O)C4=O)CC2)c(F)cc1Nc1ncc2c(n1)N(C1CCCC1)CC(F)(F)C(=O)N2C` (centres unmarked) [Compound 56, 4-((9-cyclopentyl-7,7-difluoro-5-methyl-6-oxo-6,7,8,9-tetrahydro-5H-pyrimido[4,5-b][1,4]diazepin-2-yl)amino)-N-(1-(2-(2-(2-((2-(2,6-dioxopiperidin-3-yl)-1,3-dioxoisoindolin-4-yl)oxy)acetamido)ethoxy)ethyl)piperidin-4-yl)-2-fluoro-5-methoxybenzamide]: the DC50 was no more than 0.5 µM and the Dmax lay within 60 to 80%.
